According to EP1208096B1, “SUBSTITUTED PYRIDAZINES AND FUSED PYRIDAZINES WITH ANGIOGENESIS INHIBITING ACTIVITY” (Bayer Corporation, priority 1999, dated 2001):

Target: T1, NIH3T3 cells expressing the full length KDR receptor (Homo sapiens, UniProt P35968)
T1 construct: NIH3T3 cells expressing the full length KDR receptor; expressed in transfected cells; host or cells: NIH3T3 cells (G418 selection)
Assay: Cell mechanistic assay - Inhibition of 3T3 KDR phosphorylation
Format: cell-based
Settings: VEGF (30 ng / ml) for 10 minutes after 30 minutes with compound; KDR phosphotyrosine ELISA
Description: NIH3T3 cells expressing the full length KDR receptor were grown in DMEM (Life Technologies, Inc., Grand Island, NY) supplemented with 10% newborn calf serum, low glucose, 25 mM /L sodium pyruvate, pyridoxine hydrochloride and 0.2 mg/ ml of G418 (Life Technologies Inc., Grand Island, NY). The cells were maintained in collagen I-coated T75 flasks (Becton Dickinson Labware, Bedford, MA) in a humidified 5% CO2 atmosphere at 37°C.
Fifteen thousand cells were plated into each well of a collagen I-coated 96-well plate in the DMEM growth medium. Six hours later, the cells were washed and the medium was replaced with DMEM without serum. After overnight culture to quiesce the cells, the medium was replaced by Dulbecco's phosphate-buffered saline (Life Technologies Inc., Grand Island, NY) with 0.1% bovine albumin (Sigma Chemical Co., St Louis, MO). After adding various concentrations (0-300 nM) of test compounds to the cells in 1% final concentration of DMSO, the cells were incubated at room temperature for 30 minutes. The cells were then treated with VEGF (30 ng / ml) for 10 minutes at room temperature. Following VEGF stimulation, the buffer was removed and the cells were lysed by addition of 150 µl of extraction buffer (50 mM Tris, pH 7.8, supplemented with 10% glycerol, 50 mM BGP, 2 mM EDTA, 10 mM NaF, 0.5 mM NaVO4, and 0.3% TX-100) at 4°C for 30 minutes.
To assess receptor phosphorylation, 100 microliters of each cell lysate was added to the wells of an ELISA plate precoated with 300 ng of antibody C20 (Santa Cruz Biotechnology, Inc., Santa Cruz , CA). Following a 60-minute incubation, the plate was washed and bound KDR was probed for phosphotyrosine using an anti-phosphotyrosine mAb clone 4G10 (Upstate Biotechnology, Lake Placid, NY). The plate was washed and wells were incubated with anti-mouse IgG/HRP conjugate (Amersham International plc, Buckinghamshire, England) for 60 minutes. Wells were washed and phosphotyrosine was quantitated by addtion of 100 µl per well of 3,3',5,5' tetramethylbenzidine (Kirkegaard and Perry, TMB Microwell 1 Component peroxidase substrate) solution. Color development was arrested by the addition of 100 µl 1% HCl based stop solution (Kirkegaard and Perry, TMB 1 Component Stop Solution).
Optical densities (OD) were determined spectrophotometrically at 450 nm in a 96-well plate reader (SpectraMax 250, Molecular Devices). Background (no VEGF added) OD values were subtracted from all ODs and percent inhibition was calculated according to the equation: % Inhibition =((OD(VEGF control) - OD(with test compound)) X 100)/(OD(VEGF control) - OD(no VEGF added)) [formula]
IC50s were determined with a least squares analysis program using compound concentration versus percent inhibition. Compounds that have IC50 < 20 nM in this assay include those of Examples 2, 6, 7, 11, 15 and 16. Compounds that have IC50 values between 20 nM and 50 nM include those of examples 1, 4, 5, 8, 10, 12, 13 and 14. Those that have measured IC50 values > 50 nM include those of examples 9 and 21.

T1 sequence (P35968 20-1356): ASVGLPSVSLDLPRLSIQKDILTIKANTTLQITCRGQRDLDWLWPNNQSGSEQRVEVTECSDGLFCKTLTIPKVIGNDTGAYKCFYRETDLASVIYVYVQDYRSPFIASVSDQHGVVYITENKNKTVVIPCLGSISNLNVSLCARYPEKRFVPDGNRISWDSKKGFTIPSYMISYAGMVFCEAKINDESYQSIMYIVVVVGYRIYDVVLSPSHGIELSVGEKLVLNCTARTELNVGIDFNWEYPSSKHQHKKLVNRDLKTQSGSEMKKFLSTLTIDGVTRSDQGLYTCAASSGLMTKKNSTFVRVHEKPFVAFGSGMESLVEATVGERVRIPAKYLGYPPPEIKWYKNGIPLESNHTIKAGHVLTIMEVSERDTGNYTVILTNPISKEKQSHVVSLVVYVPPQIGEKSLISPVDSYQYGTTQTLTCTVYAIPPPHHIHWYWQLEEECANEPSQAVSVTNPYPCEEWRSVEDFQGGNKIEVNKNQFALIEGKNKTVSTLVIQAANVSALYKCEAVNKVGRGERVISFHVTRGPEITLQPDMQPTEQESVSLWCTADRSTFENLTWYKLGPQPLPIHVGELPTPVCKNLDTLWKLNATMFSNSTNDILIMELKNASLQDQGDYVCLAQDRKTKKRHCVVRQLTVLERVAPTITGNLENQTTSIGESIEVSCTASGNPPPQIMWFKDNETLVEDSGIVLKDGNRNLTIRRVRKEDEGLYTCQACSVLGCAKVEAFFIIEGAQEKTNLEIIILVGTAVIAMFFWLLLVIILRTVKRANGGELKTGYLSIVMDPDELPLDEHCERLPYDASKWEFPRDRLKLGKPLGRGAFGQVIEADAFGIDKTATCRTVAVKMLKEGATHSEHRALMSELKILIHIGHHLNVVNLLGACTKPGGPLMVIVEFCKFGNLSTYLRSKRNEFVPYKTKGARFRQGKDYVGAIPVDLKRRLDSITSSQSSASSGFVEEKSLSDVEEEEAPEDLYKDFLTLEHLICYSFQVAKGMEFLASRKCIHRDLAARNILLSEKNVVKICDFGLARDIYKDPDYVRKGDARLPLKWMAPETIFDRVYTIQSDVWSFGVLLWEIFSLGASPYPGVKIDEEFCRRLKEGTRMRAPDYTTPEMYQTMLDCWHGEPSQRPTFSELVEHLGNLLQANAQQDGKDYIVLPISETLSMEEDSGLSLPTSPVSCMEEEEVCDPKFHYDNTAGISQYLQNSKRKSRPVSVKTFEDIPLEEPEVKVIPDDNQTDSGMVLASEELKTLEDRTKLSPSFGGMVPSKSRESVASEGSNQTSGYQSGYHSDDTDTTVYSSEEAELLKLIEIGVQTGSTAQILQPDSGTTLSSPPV

IC50: 20 to 50 nM
SMILES: CNC(=O)c1cc(Cc2nnc(Nc3ccc(Cl)cc3)c3ccccc23)ccn1 [Example 1, 4-[4-(4-Chlorophenylamino)phthalazin-1-ylmethyl]pyridin-2-yl carboxylic acid methylamide]
